Reference: patent EP0297159A1, “[N-Acyl, 1,7-Di-Aline] calcitonins, method for their preparation, pharmaceutical compositions and use” (Armour Pharmaceutical Company, priority 1987, dated 1989)
Where a SMILES comes first, the peptide text is derived from it. The star is where a group is joined. Propionyl = CCC(=O)*

Tested on: serum calcium concentration
Settings: rat, in vivo, sc
Procedure: Rats were divided into four groups of seven animals, and each group was assigned at random to a dose of standard or test solution. Low and high doses were chosen from the linear portion of the dose-response curve. For the salmon calcitonin standard, the values were 0.7 and 2.1 mcg. peptide/100 g. body weight (BW). This dose approximates 3 and 9 MU/100 g. BW. Peptides were given by subcutaneous injection (0.2 ml./100 g. BW) and blood was withdrawn 1 hour later for serum calcium determination. Sera are processed and analyzed within two hours of collection.

CCC(=O)N[C@@H](C)C(=O)N[C@@H](CO)C(=O)N[C@@H](CC(N)=O)C(=O)N[C@@H](CC(C)C)C(=O)N[C@@H](CO)C(=O)N[C@H](C(=O)N[C@@H](C)C(=O)N[C@H](C(=O)N[C@@H](CC(C)C)C(=O)NCC(=O)N[C@@H](CCCCN)C(=O)N[C@@H](CC(C)C)C(=O)N[C@@H](CO)C(=O)N[C@@H](CCC(N)=O)C(=O)N[C@@H](CCC(=O)O)C(=O)N[C@@H](CC(C)C)C(=O)N[C@@H](Cc1c[nH]cn1)C(=O)N[C@@H](CCCCN)C(=O)N[C@@H](CC(C)C)C(=O)N[C@@H](CCC(N)=O)C(=O)N[C@H](C(=O)N[C@@H](Cc1ccc(O)cc1)C(=O)N1CCC[C@H]1C(=O)N[C@@H](CCCNC(=N)N)C(=O)N[C@H](C(=O)N[C@@H](CC(N)=O)C(=O)N[C@H](C(=O)NCC(=O)N[C@@H](CO)C(=O)NCC(=O)N[C@H](C(=O)N1CCC[C@H]1C(N)=O)[C@@H](C)O)[C@@H](C)O)[C@@H](C)O)[C@@H](C)O)C(C)C)[C@@H](C)O [[N^α-Propionyl-Di-Ala^1,7]SCT, [N^α-Propionyl, 1,7-Di-Alanine]salmon calcitonin] (Propionyl-ASNLSTAVLGKLSQELHKLQTYPRTNTGSGTP-NH2)
biological potency: 5450 IU/mg
